Data reported in ChEMBL document CHEMBL4396926, “Design, Synthesis and Anticancer Evaluation of New Substituted Thiophene-Quinoline Derivatives” (Bioorg Med Chem, 2019).

Key:
HepG2 [1] = test: Cytotoxicity against human HepG2 cells assessed as cell growth inhibition at 3.125 to 100 uM incubated for 72 hrs and measured after 2 hrs by microplate reader based WST-1 assay relative to control; type: functional
HeLa [2] = test: Cytotoxicity against human HeLa cells assessed as cell growth inhibition at 3.125 to 100 uM incubated for 72 hrs and measured after 2 hrs by microplate reader based WST-1 assay relative to control; type: functional
HCT-116 [3] = test: Cytotoxicity against human HCT116 cells assessed as cell growth inhibition at 3.125 to 100 uM incubated for 72 hrs and measured after 2 hrs by microplate reader based WST-1 assay relative to control; type: functional
MCF7 [4] = test: Cytotoxicity against human MCF7 cells assessed as cell growth inhibition at 3.125 to 100 uM incubated for 72 hrs and measured after 2 hrs by microplate reader based WST-1 assay relative to control; type: functional
HepG2 [5] = test: Cytotoxicity against human HepG2 cells assessed as increase in growth inhibition by measuring decrease in cell viability incubated for 72 hrs and measured after 2 hrs by microplate reader based WST-1 assay; type: functional
HeLa [6] = test: Cytotoxicity against human HeLa cells assessed as increase in growth inhibition by measuring decrease in cell viability incubated for 72 hrs and measured after 2 hrs by microplate reader based WST-1 assay; type: functional
HCT-116 [7] = test: Cytotoxicity against human HCT116 cells assessed as increase in growth inhibition by measuring decrease in cell viability incubated for 72 hrs and measured after 2 hrs by microplate reader based WST-1 assay; type: functional
MCF7 [8] = test: Cytotoxicity against human MCF7 cells assessed as increase in growth inhibition by measuring decrease in cell viability incubated for 72 hrs and measured after 2 hrs by microplate reader based WST-1 assay; type: functional
[9] = target: Epidermal growth factor receptor (Homo sapiens, UniProt P00533); test: Inhibition of EGFR-TK in human MCF7 cells overexpressing EGFR incubated for 18 to 24 hrs by kinase assay; type: cell-based
MCF7 [10] = test: Induction of apoptosis in human MCF7 cells assessed as increase in caspase 3 activation by measuring fold increase in caspase 3 level by fluorescence based solid phase sandwich ELISA; type: functional
MCF7 [11] = test: Induction of apoptosis in human MCF7 cells assessed as increase in caspase 9 activation by measuring fold increase in caspase 9 level by fluorescence based solid phase sandwich ELISA; type: functional
MCF7 [12] = test: Cell cycle arrest in human MCF7 cells assessed as accumulation at G0/G1 phase at IC50 after 24 hrs by propidium iodide staining based FACS analysis (reference value: 67.39%); type: functional
MCF7 [13] = test: Cell cycle arrest in human MCF7 cells assessed as accumulation at S phase at IC50 after 24 hrs by propidium iodide staining based FACS analysis (reference value: 27.13%); type: functional
MCF7 [14] = test: Cell cycle arrest in human MCF7 cells assessed as accumulation at G2/M phase at IC50 after 24 hrs by propidium iodide staining based FACS analysis (reference value: 4.82%); type: functional
MCF7 [15] = test: Cell cycle arrest in human MCF7 cells assessed as accumulation at pre G1/apoptotic phase at IC50 after 24 hrs by propidium iodide staining based FACS analysis (reference value: 0.66%); type: functional
MCF7 [16] = test: Induction of apoptosis in human MCF7 cells after 24 hrs by Annexin V-FITC/propidium iodide staining-based FACS analysis; type: functional, cell-based
MCF7 [17] = test: Induction of apoptosis in human MCF7 cells assessed as viable cells after 24 hrs by Annexin V-FITC/propidium iodide staining-based FACS analysis (reference value: 99.34%); type: functional
MCF7 [18] = test: Induction of apoptosis in human MCF7 cells assessed as early apoptotic cells after 24 hrs by Annexin V-FITC/propidium iodide staining-based FACS analysis (reference value: 0.29%); type: functional
MCF7 [19] = test: Induction of apoptosis in human MCF7 cells assessed as late apoptotic cells after 24 hrs by Annexin V-FITC/propidium iodide staining-based FACS analysis (reference value: 0.22%); type: functional
MCF7 [20] = test: Induction of apoptosis in human MCF7 cells assessed as necrotic cells after 24 hrs by Annexin V-FITC/propidium iodide staining-based FACS analysis (reference value: 0.15%); type: functional
DNA topoisomerase II [21] = target: T1, DNA topoisomerase II (Homo sapiens, UniProt P11388+Q02880); test: Inhibition of DNA topoisomerase 2 in human MCF7 cells at 25 uM incubated for 18 to 24 hrs by kinase assay relative to control; type: cell-based
DNA topoisomerase II [22] = target: T1, DNA topoisomerase II; test: Inhibition of DNA topoisomerase 2 in human MCF7 cells at 1 uM incubated for 18 to 24 hrs by kinase assay relative to control; type: cell-based
DNA topoisomerase II [23] = target: T1, DNA topoisomerase II; test: Inhibition of DNA topoisomerase 2 in human MCF7 cells at 0.2 uM incubated for 18 to 24 hrs by kinase assay relative to control; type: cell-based
DNA topoisomerase II [24] = target: T1, DNA topoisomerase II; test: Inhibition of DNA topoisomerase 2 in human MCF7 cells incubated for 18 to 24 hrs by kinase assay; type: cell-based
DNA topoisomerase II [25] = target: T1, DNA topoisomerase II; test: Inhibition of DNA topoisomerase 2 in human MCF7 cells at 5 uM incubated for 18 to 24 hrs by kinase assay relative to control; type: cell-based
HeLa [26] = test: Induction of apoptosis in human HeLa cells assessed as increase in caspase 9 activation by measuring fold increase in caspase 9 level by fluorescence based solid phase sandwich ELISA; type: functional
HeLa [27] = test: Induction of apoptosis in human HeLa cells assessed as increase in caspase 3 activation by measuring fold increase in caspase 3 level by fluorescence based solid phase sandwich ELISA; type: functional
[28] = Homo sapiens, MCF7, read-out: IC50
[29] = Homo sapiens, HCT-116, read-out: IC50
[30] = Homo sapiens, HepG2, read-out: IC50
[31] = Homo sapiens, HeLa, read-out: IC50

Sequence of Epidermal growth factor receptor (P00533 whole entry): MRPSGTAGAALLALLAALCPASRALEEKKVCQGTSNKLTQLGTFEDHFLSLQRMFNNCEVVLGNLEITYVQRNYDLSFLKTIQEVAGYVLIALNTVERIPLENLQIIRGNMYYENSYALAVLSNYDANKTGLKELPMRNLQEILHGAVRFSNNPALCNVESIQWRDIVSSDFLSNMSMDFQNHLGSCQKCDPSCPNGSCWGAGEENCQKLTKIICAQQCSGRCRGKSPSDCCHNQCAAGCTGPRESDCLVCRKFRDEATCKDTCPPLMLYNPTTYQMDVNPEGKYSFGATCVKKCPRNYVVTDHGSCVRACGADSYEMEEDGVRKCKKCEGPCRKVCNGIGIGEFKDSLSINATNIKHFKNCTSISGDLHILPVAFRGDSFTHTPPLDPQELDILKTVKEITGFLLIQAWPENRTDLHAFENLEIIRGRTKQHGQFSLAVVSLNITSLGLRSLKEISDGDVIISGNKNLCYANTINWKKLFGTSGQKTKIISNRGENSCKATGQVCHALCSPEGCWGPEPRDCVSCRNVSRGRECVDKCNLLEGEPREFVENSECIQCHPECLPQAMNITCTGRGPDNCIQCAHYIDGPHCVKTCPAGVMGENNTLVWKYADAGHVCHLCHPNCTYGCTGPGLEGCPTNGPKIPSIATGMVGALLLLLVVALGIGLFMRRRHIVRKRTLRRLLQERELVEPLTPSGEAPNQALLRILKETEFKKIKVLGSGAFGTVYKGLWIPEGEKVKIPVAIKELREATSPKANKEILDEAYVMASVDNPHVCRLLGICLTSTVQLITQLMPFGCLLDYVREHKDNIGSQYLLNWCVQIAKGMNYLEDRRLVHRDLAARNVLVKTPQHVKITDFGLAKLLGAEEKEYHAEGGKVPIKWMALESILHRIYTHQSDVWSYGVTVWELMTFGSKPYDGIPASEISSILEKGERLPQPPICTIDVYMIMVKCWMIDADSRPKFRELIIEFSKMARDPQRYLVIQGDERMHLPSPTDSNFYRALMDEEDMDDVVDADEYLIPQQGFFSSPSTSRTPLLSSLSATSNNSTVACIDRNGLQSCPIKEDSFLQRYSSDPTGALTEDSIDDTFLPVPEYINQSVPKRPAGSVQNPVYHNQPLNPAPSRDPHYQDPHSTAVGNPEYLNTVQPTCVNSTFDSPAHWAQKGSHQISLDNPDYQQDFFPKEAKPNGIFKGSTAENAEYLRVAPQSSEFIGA

FC(F)(F)c1cccc(COC(c2cccs2)c2cc3ccccc3nc2Cl)c1 (stereo not drawn)
growth inhibition (GI) (HepG2 [1]): <10% | growth inhibition (GI) (HeLa [2]): 42.42% | growth inhibition (GI) (HCT-116 [3]): 23.22% | growth inhibition (GI) (MCF7 [4]): 52.9% | IC50 (HepG2 [5]; hepg2): Not Active | IC50 (HeLa [6]; hela): Not Active | IC50 (HCT-116 [7]; hct-116): Not Active | IC50 (MCF7 [8]; [28]): 101 µM

Cc1ccc(-n2cc(COC(c3cccs3)c3cc4ccccc4nc3Cl)nn2)cc1 (stereo not drawn)
growth inhibition (GI) (HepG2 [1]): 18.78% | growth inhibition (GI) (HeLa [2]): <10% | growth inhibition (GI) (HCT-116 [3]): 13.03% | growth inhibition (GI) (MCF7 [4]): <10%

Cc1ccc(-c2cc(COC(c3cccs3)c3cc4ccccc4nc3Cl)on2)cc1 (stereo not drawn)
growth inhibition (GI) (HepG2 [1]): 31.77% | growth inhibition (GI) (HeLa [2]): <10% | growth inhibition (GI) (HCT-116 [3]): 43.91% | growth inhibition (GI) (MCF7 [4]): 22.03% | IC50 (HepG2 [5]; hepg2): Not Active | IC50 (HeLa [6]; hela): Not Active | IC50 (HCT-116 [7]; [29]): 115 µM | IC50 (MCF7 [8]; mcf7): Not Active

FC(F)(F)c1ccc(-n2cc(COC(c3cccs3)c3cc4ccccc4nc3Cl)nn2)cc1 (stereo not drawn)
growth inhibition (GI) (HepG2 [1]): <10% | growth inhibition (GI) (HeLa [2]): <10% | growth inhibition (GI) (HCT-116 [3]): 35.86% | growth inhibition (GI) (MCF7 [4]): <10%

Clc1nc2ccccc2cc1C(OCc1ccccc1)c1cccs1 (stereo not drawn)
growth inhibition (GI) (HepG2 [1]): <10% | growth inhibition (GI) (HeLa [2]): <10% | growth inhibition (GI) (HCT-116 [3]): <10% | growth inhibition (GI) (MCF7 [4]): 45.63% | IC50 (HepG2 [5]; hepg2): Not Active | IC50 (HeLa [6]; hela): Not Active | IC50 (HCT-116 [7]; hct-116): Not Active | IC50 (MCF7 [8]; [28]): 108 µM

O=[N+]([O-])c1ccc(-n2cc(COC(c3cccs3)c3cc4ccccc4nc3Cl)nn2)cc1 (stereo not drawn)
growth inhibition (GI) (HepG2 [1]): <10% | growth inhibition (GI) (HeLa [2]): <10% | growth inhibition (GI) (HCT-116 [3]): <10% | growth inhibition (GI) (MCF7 [4]): <10%

COc1ccc(-c2cc(COC(c3cccs3)c3cc4ccccc4nc3Cl)on2)cc1OC (stereo not drawn)
growth inhibition (GI) (HepG2 [1]): <10% | growth inhibition (GI) (HeLa [2]): <10% | growth inhibition (GI) (HCT-116 [3]): <10% | growth inhibition (GI) (MCF7 [4]): <10%

Clc1nc2ccccc2cc1C(OCc1ccc(Br)cc1)c1cccs1 (stereo not drawn)
growth inhibition (GI) (HepG2 [1]): <10% | growth inhibition (GI) (HeLa [2]): 30.89% | growth inhibition (GI) (HCT-116 [3]): 21.98% | growth inhibition (GI) (MCF7 [4]): <10%

COc1cc(-c2cc(COC(c3cccs3)c3cc4ccccc4nc3Cl)on2)cc(OC)c1OC (stereo not drawn)
growth inhibition (GI) (HepG2 [1]): 14.57% | growth inhibition (GI) (HeLa [2]): <10% | growth inhibition (GI) (HCT-116 [3]): <10% | growth inhibition (GI) (MCF7 [4]): <10%

Cc1cc(C)cc(-c2cc(COC(c3cccs3)c3cc4ccccc4nc3Cl)on2)c1 (stereo not drawn)
growth inhibition (GI) (HepG2 [1]): <10% | growth inhibition (GI) (HeLa [2]): <10% | growth inhibition (GI) (HCT-116 [3]): <10% | growth inhibition (GI) (MCF7 [4]): <10%

Oc1ccc(-c2cc(COC(c3cccs3)c3cc4ccccc4nc3Cl)on2)cc1 (stereo not drawn)
growth inhibition (GI) (HepG2 [1]): 64.51% | growth inhibition (GI) (HeLa [2]): <10% | growth inhibition (GI) (HCT-116 [3]): 14.27% | growth inhibition (GI) (MCF7 [4]): <10% | IC50 (HepG2 [5]; [30]): 178 µM | IC50 (HeLa [6]; hela): Not Active | IC50 (HCT-116 [7]; hct-116): Not Active | IC50 (MCF7 [8]; mcf7): Not Active

Clc1ccc(COC(c2cccs2)c2cc3ccccc3nc2Cl)cc1 (stereo not drawn)
growth inhibition (GI) (HepG2 [1]): <10% | growth inhibition (GI) (HeLa [2]): 30.41% | growth inhibition (GI) (HCT-116 [3]): <10% | growth inhibition (GI) (MCF7 [4]): 47.94% | IC50 (HepG2 [5]; hepg2): Not Active | IC50 (HeLa [6]; hela): Not Active | IC50 (HCT-116 [7]; hct-116): Not Active | IC50 (MCF7 [8]; [28]): 28.3 µM | IC50 [9]: 3.66 µM | fold change (FC) (MCF7 [10]): 33.7 | fold change (FC) (MCF7 [11]): 29 | Activity (MCF7 [12]): 44.28% | Activity (MCF7 [13]): 15.35% | Activity (MCF7 [14]): 23.14% | Activity (MCF7 [15]): 17.05% | Activity (MCF7 [16]): Dose-dependent effect | Activity (MCF7 [17]): 82.72% | Activity (MCF7 [18]): 6.69% | Activity (MCF7 [19]): 8.67% | Activity (MCF7 [20]): 1.6% | inhibition (DNA topoisomerase II [21]): 93.2% | inhibition (DNA topoisomerase II [22]): 63.3% | inhibition (DNA topoisomerase II [23]): 36.3% | IC50 (DNA topoisomerase II [24]): 0.44 µM | inhibition (DNA topoisomerase II [25]): 84.7%

Clc1ccc(-n2cc(COC(c3cccs3)c3cc4ccccc4nc3Cl)nn2)cc1 (stereo not drawn)
growth inhibition (GI) (HepG2 [1]): 8.39% | growth inhibition (GI) (HeLa [2]): <10% | growth inhibition (GI) (HCT-116 [3]): 23.13% | growth inhibition (GI) (MCF7 [4]): <10%

Cc1cc(C)c(COC(c2cccs2)c2cc3ccccc3nc2Cl)c(C)c1 (stereo not drawn)
growth inhibition (GI) (HepG2 [1]): 24.76% | growth inhibition (GI) (HeLa [2]): 42.48% | growth inhibition (GI) (HCT-116 [3]): 26.37% | growth inhibition (GI) (MCF7 [4]): 21.49%

COc1ccc(-c2cc(COC(c3cccs3)c3cc4ccccc4nc3Cl)on2)cc1 (stereo not drawn)
growth inhibition (GI) (HepG2 [1]): 17.93% | growth inhibition (GI) (HeLa [2]): <10% | growth inhibition (GI) (HCT-116 [3]): 20.31% | growth inhibition (GI) (MCF7 [4]): <10%

O=c1[nH]cc(F)c(=O)[nH]1 [FLUOROURACIL]
IC50 (HepG2 [5]; [30]): > 100 µM | IC50 (HeLa [6]; [31]): 20.4 µM | IC50 (HCT-116 [7]; [29]): 63.9 µM | IC50 (MCF7 [8]; [28]): > 100 µM | fold change (FC) (HeLa [26]): 94.4 | fold change (FC) (MCF7 [11]): 26 - 26.1

COc1ccc(-n2cc(COC(c3cccs3)c3cc4ccccc4nc3Cl)nn2)cc1 (stereo not drawn)
growth inhibition (GI) (HepG2 [1]): <10% | growth inhibition (GI) (HeLa [2]): <10% | growth inhibition (GI) (HCT-116 [3]): 32.52% | growth inhibition (GI) (MCF7 [4]): <10%

CNC(=O)c1cc(Oc2ccc(NC(=O)Nc3ccc(Cl)c(C(F)(F)F)c3)cc2)ccn1 [SORAFENIB]
fold change (FC) (HeLa [27]): 35.5 | fold change (FC) (MCF7 [10]): 34.2

C#CCOC(c1cccs1)c1cc2ccccc2nc1Cl (stereo not drawn)
IC50 (HepG2 [5]; [30]): > 100 µM | IC50 (HeLa [6]; [31]): 34.7 µM | IC50 (HCT-116 [7]; [29]): > 100 µM | IC50 (MCF7 [8]; [28]): > 100 µM
